# Reference: publication PMC4729491, “The Cellular Thioredoxin-1/Thioredoxin Reductase-1 Driven Oxidoreduction Represents a Chemotherapeutic Target for HIV-1 Entry Inhibition” (PLoS ONE, 2016)
# Counter-ions that a name gives are not always drawn. Like-named read-outs stand apart in the source and are kept apart here. Square brackets hold non-standard residues; d marks the D form. Peptide text beside a SMILES is read from it. * marks the point of attachment. Sta = CC(C)C[C@H](N)[C@@H](O)CC(=O)O; Isovaleryl = CC(C)CC(=O)*
# Legend:
# [1] = molecular target: T1, HIV-1 protease (Human immunodeficiency virus type 1 group M subtype B, UniProt P04585); test: HIV-1 protease inhibition (SensoLyte 520 kit); assay type: biochemical; details: 25 μM
# T1 construct: the virus-encoded protease; endogenous in cells; host or cells: persistently infected HuT-78/HIV-1(IIIB) cells and released virus particles
# Procedure: The ability of the compounds to inhibit the activity of recombinant HIV-1 protease was determined by a SensoLyte 520 HIV-1 protease assay kit (AnaSpec Inc., Fremont, CA) according to the manufacturer’s instructions. Compounds (10 μl of a 250 μM, solution, giving a final concentration of 25 μM in the reaction mixture) and 40 μl HIV-1 protease (100 ng/well; AnaSpec Inc.) were added to a dark-bottom 96-well plate. Pepstatin A was included as an inhibitor control. The plate as well as the HIV-1 protease substrate solution (provided) were incubated for 15 minutes at 37°C and 50 μl protease substrate was added to all wells. The fluorescence was measured at Ex/Em = 490 nm/520 nm with a Varioskan Flash (Thermo Electron Corporation, Schwerte, Germany).
# [2] = test system: HuT-78/HIV-1 and Sup-T1 cells; test: cells; assay type: cell-based; details: read-out: IC50 inhibition of syncytia formation
# Procedure: Persistently infected HuT-78/HIV-1 cells were thoroughly washed to eliminate free virions. Next, 1 x 10^5 HuT-78/HIV-1 cells were co-cultivated with 1 x 10^5 Sup-T1 cells in 96-well plates (200 μl/well) during 20 h at 37°C, in the presence or absence of a serial dilution of compound. Afterwards, the formation of syncytia was evaluated microscopically. The EC50 was defined as the compound concentration required to suppress syncytia formation by 50%.
# [3] = molecular target: T1, HIV-1 protease; test: p55 cleavage in virus particles from HuT-78/HIV-1 cells (Western blot); assay type: cell-based; details: 43 h, AZT 3.7 μM, ritonavir 2.8 μM, TE-10 1 and 20 μM
# Procedure: In order to confirm the inhibitory effect of TE-10, an additional assay was performed to study the inhibition of the HIV-1 protease by TE-10. Therefore, 2 x 10^5 persistently infected HuT-78/HIV-1 cells were washed thoroughly and seeded in 48-well plates, in the presence or absence of compound. As reference compounds, the RT inhibitor AZT (3.7 μM) and the protease inhibitor ritonavir (2.8 μM) were used, as negative and positive controls, respectively. TE-10 was used at 1 μM and 20 μM. After 43 h of incubation at 37°C, virus-containing cell culture supernatants were harvested and the cells were removed by centrifugation (10 min at ± 900 x g). Then, virus was precipitated from the cell supernatant by centrifugation at ± 3.5 x 10^4 x g for at least 2 h. The viruses were resuspended in PBS and lysed with Triton-X100 (Sigma-Aldrich, Diegem, Belgium). These viral lysates were then subjected to SDS-PAGE and subsequent Western blotting to detect the presence of p24 and its precursor p55, using an anti-p24 antibody (AB9044; final concentration 2.4 μg/ml).
# [4] = test system: HIV-1(IIIB); assay type: cell-based; details: for time after virus infection that addition could be delayed without losing inhibitory activity / time post-infection at which activity is lost: MT-4 cells; for time after virus infection that addition could be delayed without losing inhibitory activity: p24 ELISA at 31 h, AZT 1.9 μM, ritonavir 277 nM; for time post-infection at which activity is lost: second TOA experiment, DS-8000 12.5 μM, AMD3100 625 nM
# Procedure: Two time-of-drug-addition (TOA) experiments were performed and adopted from previously reported methods. Briefly, MT-4 cells were infected with HIV-1(IIIB) at a multiplicity of infection of 0.5. Following a 1 hour adsorption period, cells were washed, distributed in a 96-well tray at 100,000 cells per 200 μl per well and incubated at 37°C.
# For the first experiment, test compounds were added to the infected cell cultures at different time points (i.e. 0, 1, 2, 3, 4, 5, 6, 7, 8, 9, 24, and 25 h) after the start of infection.
# In a second experiment, the resolution of the assay was increased by evaluating early time points in more detail. Therefore, the test compounds were added to the infected cell cultures at the following time points after the start of infection: 0, 15, 30, 45, 100 and 180 min; and 24 as well as 25 h.
# Product added at time points 0, 15, 30 and 45 min was present at the start of the viral infection and washed away after 1 hour. After washing, fresh product was added to maintain viral suppression throughout the remaining of the experiment.
# HIV-1 production was determined at 31 h post infection via a p24 ELISA (Perkin Elmer, Brussels, Belgium).
# [5] = test system: CEM cells; test: Cytostatic activity assay, CEM cells; assay type: cell-based; details: Homo sapiens, CCRF-CEM, 72 h; inhibition of cell proliferation by 50%, three-day drug-exposed; mean ± SD
# Procedure: (§1) The cytostatic activity assay using transformed cell lines was also performed in 96-well microtiter plates. 5–7.5 x 10^4 human CD4^+ T-lymphocyte CEM or human cervix carcinoma HeLa cells and a given amount of the test compounds were added to each well. The cells were allowed to proliferate for 72 h (96 h for HeLa) at 37°C in a humidified CO2-controlled atmosphere. At the end of the incubation period, the cells were counted in a Coulter counter (type ZM, Coulter Electronics, Analis, Ghent, Belgium).
# [6] = test system: PHA-stimulated PBMCs; test: Toxicity in PHA-stimulated PBMCs (trypan blue cell counting); assay type: cell-based, human; details: Homo sapiens, PBMC, 168 h, read-out: IC50 PBMC
# Procedure: A similar experiment was performed to study the toxicity of the compounds in fresh, PHA-stimulated, PBMCs. Mock-infected PBMCs (2 x 10^5 cells) were exposed to a serial dilution of compound, in a total volume of 200 μl. Cells were passaged after 4 days. Cell survival and proliferation was assessed at day 7 using trypan blue-based cell counting with the Countess Automated Cell Counter (Invitrogen, Ghent, Belgium). The IC50 was defined as the concentration of the compound that inhibited cell proliferation by 50%.
# [7] = test system: HIV-1; test: Infectivity (TZM-bl) of virus particles produced by ACH-2 cells in presence of compound; assay type: cell-based; details: for carry-over control: residual compound as cause of decreased infectivity: compound added at 1/100 of concentration in viral growth culture
# Procedure: To measure the infectivity of particles produced in the presence of the compounds, washed persistently HIV-1-infected ACH-2 cells (1 x 10^6 cells/ml) were cultured with 100 nM PMA in the presence of the indicated concentration of compounds. After 3 days, the p24 content of the clarified supernatant (see virus expression) was measured. The cell supernatant was then used for an infectivity test (see infectivity assay) without the further addition of any compound to the cultures. The final dilution of the ACH-2 supernatant in the infectivity test was 1:100. A control experiment was performed, in which virus particles produced without the addition of compound, were used for the infectivity test. Additionally, the same amount of compound that could have been carried over with the virus containing supernatant in the original experiment was added to the infectivity test (final concentration: 1/100 of the indicated amount in the viral growth culture).
# [8] = test system: HIV-1(HE); test: Antiviral activity in PHA-stimulated PBMCs (p24 ELISA), HIV-1(HE); assay type: cell-based; details: Human immunodeficiency virus 1, PBMC, read-out: EC50 HIV-1 (HE)
# Procedure: (§2) To test the antiviral activity in fresh, PHA-stimulated PBMCs, an experiment was performed as previously described. Briefly, the cells were preincubated with HIV-1(IIIB), HIV-1(BaL) or HIV-1(HE) for 1 h at 37°C, using a viral load of 1000 x CCID50 per ml. Then, cell suspensions containing virus and 2 x 10^5 PBMCs were seeded in a 96-well microtiter plate and a serial dilution of compound was added, in a total volume of 200 μl. After 4 days, the cells were passaged and fresh culture medium, containing IL-2 and compound, was added. Three days later, cellular supernatants were harvested and viral replication in the presence of the compounds was quantified using a p24 enzyme-linked immunosorbent assay (ELISA) (Perkin Elmer, Brussels, Belgium). The half maximal effective concentration (EC50) was defined as the compound concentration that is required to block viral replication by 50%.
# [9] = previously known structural properties ref 20-22; cited from earlier work
# [10] = test system: HIV-1(BaL); test: Antiviral activity in PHA-stimulated PBMCs (p24 ELISA), HIV-1(BaL); assay type: cell-based; details: Human immunodeficiency virus 1, BAL, PBMC; for EC50: read-out: EC50 HIV-1 (BAL)
# Procedure: as §2
# [11] = test system: HIV-2(ROD); test: Inhibition of HIV-2(ROD)-induced giant cell formation in CEM cell cultures; assay type: cell-based; details: for Ratio IC50/EC50 HIV-2 (CEM): CEM cells; for EC50: Human immunodeficiency virus 2, CCRF-CEM, read-out: EC50 HIV-2 (ROD)
# Procedure: (§3) To study the antiviral activity in transformed cells, CEM cells were suspended in fresh culture medium and infected with HIV-1(IIIB) or HIV-2(ROD) at 100 x CCID50 (cell culture infective dose 50%) per ml of cell suspension. Infected cell suspension (100 μl; 3 x 10^5 cells/ml) was transferred to a 96-well microplate, mixed with 100 μl of the appropriate dilutions of compounds, and further incubated at 37°C. After 4 days, giant cell formation was recorded microscopically and the number of giant cells was estimated microscopically as percentage of the number of giant cells present in the non-treated virus-infected cell cultures.
# [12] = test system: HeLa cells; test: Cytostatic activity assay, HeLa cells; assay type: cell-based; details: Homo sapiens, 72 h, read-out: IC50 HeLa
# Procedure: as §1
# [13] = test system: HIV-1(IIIB); test: microbe, parasite or virus in culture; assay type: cell-based; details: for Ratio IC50/EC50 HIV-1 (CEM): CEM cells; for EC50: Human immunodeficiency virus 1, IIIB, CCRF-CEM, read-out: EC50 HIV-1 (IIIB)
# Procedure: as §3
# [14] = test system: HIV-1(IIIB); test: Antiviral activity in PHA-stimulated PBMCs (p24 ELISA), HIV-1(IIIB); assay type: cell-based; details: Human immunodeficiency virus 1, IIIB, PBMC, read-out: EC50 HIV-1 (IIIB)
# Procedure: as §2
# [15] = Human immunodeficiency virus 1, SUP-T1, 24 h
compound,measurement,setting,value
"CC(C)CC(=O)N[C@H](C(=O)N[C@H](C(=O)N[C@@H](CC(C)C)[C@@H](O)CC(=O)N[C@@H](C)C(=O)N[C@@H](CC(C)C)[C@@H](O)CC(=O)O)C(C)C)C(C)C [pepstatin A, reference compound] (Isovaleryl-VV[Sta]A[Sta]-OH)",inhibition of protease activity,[1],pronounced inhibitory activity
enfuvirtide,IC50,"[2]; cocultures of HuT-78/HIV-1 and Sup-T1 cells, ~24 hours",0.275 ± 0.15 µM
CC(C)c1nc(CN(C)C(=O)N[C@H](C(=O)N[C@@H](Cc2ccccc2)C[C@H](O)[C@H](Cc2ccccc2)NC(=O)OCc2cncs2)C(C)C)cs1 [ritonavir],p55 cleavage in viral particles (Western blot),[3],blocks this cleavage
same,time after virus infection that addition could be delayed without losing inhibitory activity,[4],≥ 8 h
"CCCC[Te]CCCS(=O)(=O)O [TE-20, 3-(butyltelluro)propanesulfonic acid sodium salt]",IC50,[5],103 ± 27 µM
same,IC50,[6],75 ± 53 µM
same,carry-over control: residual compound as cause of decreased infectivity,[7],could not be explained by the presence of residual compound
same,EC50,[8],11 ± 9 µM
same,Hydrophobicity,[9],Hydrophilic
same,EC50,[10],≥ 25 µM
same,inhibition at 25 µM,[10]; read-out: inhibition at indicated concentration,30 to 50%
same,Ratio IC50/EC50 HIV-2 (CEM),[11],36
same,EC50,[11],2.9 ± 1.3 µM
same,IC50,[12],101 ± 3 µM
same,Ratio IC50/EC50 HIV-1 (CEM),[13],38
same,EC50,[13],2.7 ± 2.6 µM
same,EC50,[14],18 ± 12 µM
same,IC50,[2]; [15],> 250 µM
"Cc1cn([C@H]2C[C@H](N=[N+]=[N-])[C@@H](CO)O2)c(=O)[nH]c1=O [AZT, 3’-azido-2’,3’-dideoxythymidine]",p55 cleavage in viral particles (Western blot),[3],allow efficient p55 cleavage
same,time after virus infection that addition could be delayed without losing inhibitory activity,[4],at least 3 h
c1cc(CN2CCCNCCNCCCNCC2)ccc1CN1CCCNCCNCCCNCC1 [AMD3100],inhibition in time-of-addition assay,[4]; 625 nM,fully inhibitory
same,time post-infection at which activity is lost,[4],30 to 45 min
same,IC50,"[2]; Human immunodeficiency virus 1, cocultures of HuT-78/HIV-1 and Sup-T1 cells, ~24 hours",9.3 ± 4.3 µM
dextran sulphate [DS-8000],time post-infection at which activity is lost,[4],30 to 45 min
"CN(C)c1ccc([Te]CCCOc2ccccc2)cc1 [TE-14, N,N-dimethyl-4-aminophenyl 3-phenoxypropyl telluride]",IC50,[5],22 ± 2 µM
same,IC50,[6],9.9 ± 2.5 µM
same,infectivity of virus particles produced in presence of compound (normalized for equal p24),"[7]; ACH-2 cultures exposed to compound 3 days, supernatant 1:100 titrated on TZM-bl",substantially less infectious virus particles
same,carry-over control: residual compound as cause of decreased infectivity,[7],could not be explained by the presence of residual compound
same,EC50,[8],5.4 ± 3 µM
same,Hydrophobicity,[9],Hydrophobic
same,EC50,[10],9.6 ± 10 µM
same,Ratio IC50/EC50 HIV-2 (CEM),[11],16
same,EC50,[11],1.4 ± 0.56 µM
same,IC50,[12],25 ± 4 µM
same,Ratio IC50/EC50 HIV-1 (CEM),[13],26
same,EC50,[13],0.86 ± 0.21 µM
same,EC50,[14],4.9 ± 2.1 µM
same,IC50,[2]; [15],> 250 µM
